Source: patent publication US10335400B2, “Treatment of tauopathies with mGluR5 antagonists” (priority 2014, dated 2019)

Experiments:
[1] = system: tau; assay: Tau phosphorylation (Western blots, immunofluorescence) in mouse hippocampal primary neurons; assay type: cell-based
Procedure: Mouse hippocampal neuronal cultures were prepared from d 18 embryos as previously described (1). Briefly, C57BL/6 pregnant female mice from Charles River Laboratories were killed by cervical dislocation. All studies were performed in accordance with the recommendations in the Guide for the Care and Use of Laboratory Animals of the National Institutes of Health (2). The protocol was approved by Institutional Animal Care and Use Committee of the New York Institute for Basic Research in Developmental Disabilities. All surgeries were performed under anesthesia, and all efforts were made to minimize suffering. Embryos were removed and placed in cold Hibernate A (BrainBits, LLC), and all the following steps were performed in ice-cold Hibernate A, under a stereoscopic (dissection) microscope placed in a laminar flow hood. Fetal brains were removed carefully, and forebrains were separated. The hippocampus, including the cortex surrounding the area of the hippocampus, was dissected and cut into small pieces using microsurgical scissors. The cut tissue was transferred with number 5 forceps to 15-mL tubes containing 0.1% trypsin in Versene (Invitrogen Life Technologies) and was incubated for 15 min at 37° C. followed by inactivation with 10% (vol/vol) FBS in Neurobasal complete medium (Neurobasal Medium supplemented with 2×B-27, 0.30% glutamine, 10% FBS, and penicillin/streptomycin, 0.1 mg/mL and 0.1 U/mL respectively). After 3 d, the cells were grown with Neurobasal medium supplemented with only 2×B-27. This procedure typically yields cultures that contain 70-75% neurons and […] supporting cells (3). The cultures were maintained at 37° C. in a humidified atmosphere containing 5% CO2 for 8 or 9 d before experimentation. Every 72 h, the medium was replaced with fresh medium. All medium components were purchased from Invitrogen. The neuronal transfection was performed using Lipofectamine LTX and Plus reagent at 5 d in vitro according to the manufacturer's instructions (Invitrogen). The cells were processed for immunofluorescent staining 3 d after transfection.
Protein was fractionated by 10% SDS/PAGE, transferred to PVDF membrane, and then blocked with 5% skim milk for 1 h at room temperature. The membrane was probed with anti-IPP2A (5G6, 1:1, 500) (7), anti-I2P2A (10E7, 1:1, 600) (7), anti-tau ˜92e; 1:5,000) (8), anti-tau (R134d; 1:5 000) (9), anti-tau pSer^262/^356 (12E8; 1:500) (10, anti-tau pSer^199, anti-tau pThr^205, anti-tau pThr^212, and pSer^396 (1:1,000) (Biosource), anti-GAPDH (1:2,000) (Santa Cruz Biotechnology), anti-PP2Ac (1:10 000) (BD Transduction Lab), anti pY^307-PP2A and anti-DML^309-PP2A (1:1,000) (Millipore), anti-GSK-3(α/β), anti-pS^9-GSK-3 β, anti-ERK1/2, anti-pT^202/Y^204-ERK1/2, anti-MEK1/2, anti-p9^17/221-MEK1/2, anti-CAMKII, anti-pT^286-CAMKII, anti-p70 S6 kinase, anti-pT^389-p70 S6 kinase, anti-SAPK/JNK, and anti-pT^183/Y^185-SAPK/JNK (1:1,000) (Cell Signaling Technology). The membrane then was incubated with HRP-conjugated secondary antibody (Jackson ImmunoResearch). The protein bands were detected with the enhanced chemiluminescence reagents (Thermo Scientific). Band intensity was measured by Multi-Gauge V3 software (Fuji Photo Film).
Primary hippocampal neuronal cultures grown on four-chamber glass slides were fixed in cold 4% (wt/vol) paraformaldehyde for 15 min and permeabilized in 0.1% Triton X-100 for 15 min followed by incubation in 5% goat serum to block the nonspecific staining for 1 h. The cells then were probed with 12E8 (1:200) overnight at 4° C. Alexa-488-conjugated anti-mouse secondary antibody (1:500) (Jackson Laboratory) was used for fluorescent labeling. The cells on slides were rinsed with PBS, mounted with Fluorogel (Electron Microscopy Sciences) and examined under laser confocal microscope (Nikon Eclipse 90i). […]

[2] = system: motor neurons; conditions: cited from earlier work
[3] = system: mixed primary neuronal culture; assay: LDH release assay in mixed primary neuronal culture; assay type: cell-based, mouse; conditions: 1 mM BMAA, 24 h
Procedure: Mouse hippocampal neuronal cultures were prepared from d 18 embryos as previously described (1). Briefly, C57BL/6 pregnant female mice from Charles River Laboratories were killed by cervical dislocation. All studies were performed in accordance with the recommendations in the Guide for the Care and Use of Laboratory Animals of the National Institutes of Health (2). The protocol was approved by Institutional Animal Care and Use Committee of the New York Institute for Basic Research in Developmental Disabilities. All surgeries were performed under anesthesia, and all efforts were made to minimize suffering. Embryos were removed and placed in cold Hibernate A (BrainBits, LLC), and all the following steps were performed in ice-cold Hibernate A, under a stereoscopic (dissection) microscope placed in a laminar flow hood. Fetal brains were removed carefully, and forebrains were separated. The hippocampus, including the cortex surrounding the area of the hippocampus, was dissected and cut into small pieces using microsurgical scissors. […]

[4] = system: PP2A; assay: PP2A activity (phosphatase ELISA) in rat brain slices; assay type: cell-based; conditions: brain slices incubated with BMAA 1 mM for 2 h in artificial cerebrospinal fluid
Procedure: Male Wistar rats (Charles River Laboratories), 2-3 months old, were anesthetized by i.p. injection with 50 mg/kg Nembutal. The animals were decapitated when deeply anesthetized. The brains were removed immediately and cooled in ice-cold (4° C.) oxygenated artificial cerebrospinal fluid (aCSF) consisting of 126 mM NaCl, 3.5 mM KCl, 1.2 mM NaH2PO4, 1.3 mM MgCl2, 2 mM CaCl2, 11 mM D(+) glucose, and 25 mM NaHCO3 (pH 7.4) for 7-8 min. Each brain then was divided sagittally, and 400-μm-thick coronal slices were made with a Camden Vibraslicer (WP, Inc.). The slices were transferred into a chamber containing the oxygenated aCSF and were incubated at 33° C. for 2 h in the presence or absence of 1 mM, β-N ? methylamino-L-alanine (BMAA) dissolved in 10 mM NaHCO3 (Sigma). The oxygenation of the aCSF was carried out by bubbling the solution with a mixture of 95% O2 and 5% CO2 during the entire procedure. At the end of incubation, the brain slices were homogenized with homogenizing buffer [50 mM Tris·HCl (pH 7.4), 8.5% (wt/vol) sucrose, 2 mM EDTA, 2 mM EGTA, 10 mM (3-mercaptoethanol, 5 mM benzamidine, 0.5 mM 4-(2-Aminoethyl) benzenesulfonyl fluoride hydrochloride (AEBSF), 4 μg/mL pepstatin A, and 10 μg/mL each of aprotinin and leupepin] at a ratio of 9.0 mL buffer/1.0 g tissue slices. The homogenates were divided into two parts. One part was centrifuged at 16,000×g for 10 min, and the resulting supernatant was used to assay protein phosphatase 2A (PP2A) activity. Into the other half, an equal volume of phosphatase-inhibitor mixture (20 mM 3-glycerophosphate, 2 mM Na3VO4, and 100 mM NaF) was added immediately, and the samples were used for Western blots.

[5] = system: PP2Ac; assay: PP2A regulatory factors (pTyr307-PP2Ac, demethylated Leu309, I1PP2A, I2PP2A) by Western blots in rat brain slices; assay type: cell-based; conditions: BMAA-treated rat brain slices (1 mM, 2 h)
Procedure: Male Wistar rats (Charles River Laboratories), 2-3 months old, were anesthetized by i.p. injection with 50 mg/kg Nembutal. The animals were decapitated when deeply anesthetized. The brains were removed immediately and cooled in ice-cold (4° C.) oxygenated artificial cerebrospinal fluid (aCSF) consisting of 126 mM NaCl, 3.5 mM KCl, 1.2 mM NaH2PO4, 1.3 mM MgCl2, 2 mM CaCl2, 11 mM D(+) glucose, and 25 mM NaHCO3 (pH 7.4) for 7-8 min. Each brain then was divided sagittally, and 400-μm-thick coronal slices were made with a Camden Vibraslicer (WP, Inc.). The slices were transferred into a chamber containing the oxygenated aCSF and were incubated at 33° C. for 2 h in the presence or absence of 1 mM, β-N ? methylamino-L-alanine (BMAA) dissolved in 10 mM NaHCO3 (Sigma). The oxygenation of the aCSF was carried out by bubbling the solution with a mixture of 95% O2 and 5% CO2 during the entire procedure. […]
Protein was fractionated by 10% SDS/PAGE, transferred to PVDF membrane, and then blocked with 5% skim milk for 1 h at room temperature. […] The protein bands were detected with the enhanced chemiluminescence reagents (Thermo Scientific). Band intensity was measured by Multi-Gauge V3 software (Fuji Photo Film).

[6] = BMAA 1 mM vs controls, Western blots, P<0.01
[7] = BMAA 1 mM vs controls, Western blots, P<0.05

CNC[C@H](N)C(=O)O [BMAA, β-N-methylamino-L-alanine]
hyperphosphorylation of tau at Ser396 ([1]; BMAA 1 mM vs controls, Western blots): not at Ser^396 | hyperphosphorylation of tau at Ser262/356 (12E8 site) [1, 6]: significantly increased | hyperphosphorylation of tau at Thr205 [1, 6]: significantly increased | hyperphosphorylation of tau at Ser199 [1, 7]: significantly increased | hyperphosphorylation of tau at Thr212 [1, 7]: significantly increased | expression of tau phosphorylated at Ser262/356 ([1]; immunohistofluorescent analysis, 12E8 staining, BMAA-treated primary neurons): increased | BMAA concentration causing selective death of motor neurons [2]: ≥ 30 µM | cell death (LDH release) [3]: caused cell death | PP2A activity [4]: significant inhibition | increase in phosphorylation of PP2Ac at Tyr307 [5]: 3.7 fold
